We go through one compound from US20070299084A1, “Indole Derivatives Useful for Treating Resistance to Antitumor Agents” (NIKEM RESE S.R.L., priority 2004, published 2007).

The test system of test [1] is HT29/Mit cells (mitoxantrone-resistant human colon carcinoma, BCRP overexpression). Put plainly: Antiproliferative activity, 72 h treatment, SRB assay, HT29/Mit. The procedure: HT29 and HT29/Mit (line obtained by prolonged exposure to mitoxantrone, and characterised by overerexpression of BCRP, which confers cross resistance to topotecan, irinotecan and to its metabolite SN38): maintained in McCoy 5A medium+10% FCS.
The cells (HT29 and HT29/Mit:. 40,000 cells/ml, LoVo, LoVo/Dx and HCT116: 50,000 cells/ml) are seeded in 100 μl of the respective culture media in 96-well plates. 24 hours after seeding, an aliquot (10 μl) of drug at the various concentrations is added. In the samples in which the effect of the combination of two compounds is to be tested the inhibitor is added immediately before the cytotoxic. For each dose or combination of doses/drugs the effect of the treatment is determined in 4-8 replicates.
After 72 hours of treatment the antiproliferative effect is evaluated using the sulforhodamine B (SRB) assay: the cells are fixed by adding 25 μl of 50% TCA to each well and left for 1 hour at 4° C. After washing them with water and allowing them to dry, 100 μl of 0.4% SRB in 1% acetic acid are added and left for 30 minutes at room temperature. After 4 washes in 1% acetic acid, they are left to dry, then the dye fixed by the proteins is dissolved under basic conditions with 100 μl 10 mM cold Tris and the solution is read using a spectrophotometer at 550 nm.
Percentage cell growth is calculated as the optical density of treated samples compared to the optical density of controls (untreated cells).
The Combination Index (C.I.) was determined according to Kern's method, 1988 (who continued from Drewinko B, 1976) (Kern D. H., Cancer Res. 48, 117-121, 1988; Drewinko B., Cancer Biochem. Biophys. 1, 187-195, 1976) by means of the following formula: […], where SFa and SFb are the fractions of cells surviving to treatment with compound a and b, respectively; SFab is the fraction surviving to the combination of compounds a and b.

Test [2] relates to LoVo cells (human colon carcinoma). Nature of the test: Antiproliferative activity, 72 h treatment, SRB assay, LoVo. The class given is cell-based. From the text: LoVo and LoVo/Dx (line obtained by prolonged exposure to doxorubicin and characterised by overerexpression of P-glycoprotein, which confers resistance to doxorubicin): maintained in HAM-F12 medium+10% FCS.
For test [3], the system named is HepG2 cells (human hepatic carcinoma). Put plainly: Antiproliferative activity, 48 h treatment, ATPlite luminescence assay, HepG2. The test is classed as cell-based. Particulars: Homo sapiens, HepG2, read-out: Antiproliferative activity (IC50 ± S.D., μM) HepG2. The procedure:
HepG2: maintained in EMEM medium+10% FCS.
24 hours after seeding, an aliquot (10 μl) of the drug at the various concentrations is added (for each concentration there are 3 replicates). After 48 hours of treatment the antiproliferative effect is evaluated with a luminescence assay (Perkin Elmer Life Sciences ATPlite):
50 μl of a lysis solution are added to each well followed by an equal volume of a solution containing luciferase and D-luciferin. The ATP present in all the metabolically active cells brings about the transformation reaction of D-luciferin, catalysed by luciferase, to produce a luminescent signal as described in the following scheme: ATP+D-luciferin+O2→Oxyluciferin+AMP+PPi+CO2+Light
The luminescence produced (expressed in counts per second, CPS) is measured by means of a microplate scintillation analyzer (Perkin Elmer Life Sciences Top Count).
Percentage inhibition of luminescence in the treated cells compared to the control is calculated; concentration-response curves are then analysed using Grafit v.5.0.
A general note: ATP-based viability assays read luminescence as a measure of living cells.

The test system of test [4] is H460 cells (human lung carcinoma). Nature of the test: Migration assay (Transwell chemotaxis). The test is classed as cell-based. As to conditions: after 24 h incubation. The procedure:
(§1) Human Lung Carcinoma:H460: maintained in RPMI1640 medium+10% FCS.
(§2) H460 cells were seeded in complete medium and treated with different compound concentrations for 24 h. Then, cells were harvested and transferred to 24-well Transwell chambers (Costar) in serum-free medium in the following ways:
migration assay: 1.2×10^5 cells/well were seeded in the upper chamber, and the drug was added, in the same concentrations utilized before, in both upper and lower chambers. After 4 h of incubation at 37° C., migrated cells were fixed in 95% ethanol, stained with a 2% crystal violet in 70% ethanol solution, and counted by an inverted microscope.

Test [5] has the same test system. Nature of the test: Invasion assay (Matrigel chemoinvasion). The class given is cell-based. Here is the method:
as §1, §2
invasion assay: Transwell membranes were coated with 12.5 μg/well of Matrigel (BD Biosciences) and dried for 24 h. After this, 2.4×10^5 cells/well were seeded onto the artificial basement membrane in upper chamber, and drug was added as described for migration assay. After 24 h of incubation at 37° C., cells that invaded the Matrigel and migrated to the lower chamber were stained and counted as described for migration assay.

For a further test, the system named is H460 primary tumor. Put plainly: H460 human non-small cell lung carcinoma xenograft, antitumor activity on the primary tumor. The test is classed as in vivo, athymic Swiss nude mice. As to conditions: H460 s.c., p.o. for 8 weeks, topotecan 1 mg/kg, compound of example 2 30 mg/kg. The procedure: Female athymic Swiss nude mice (8-10 weeks old) (Charles River, Calco, Italy) were used for the experiments, as described above.
H460 cells were injected i.p. into nude mice, adapted to grow as ascitis and maintained in vivo by i.p. passages (5×10^6 cells/mouse in 0.5 ml PBS) (Pratesi G., Br. J. Cancer 63, 71-74, 1991). Briefly, cells were collected from the donor mice about 7 days after inoculum. After washing, cell number and viability were determined by trypan blue exclusion. Such procedure allowed to obtain a single cell suspension easily available for s.c or i.v. injection.
The effects of the compounds of the invention and/or topotecan on the growth of primary tumors and spontaneous lung metastasis were tested in mice inoculated s.c. in the right flank with H460 ascitic tumor cells (2×10^6/mouse). Each control or drug-treated group included 9-11 mice. The s.c. tumor growth was followed by biweekly measurements of tumor diameters with a Vernier caliper. Drug treatment was delivered orally, for 8 weeks, from day 1. Topotecan was delivered at the dose of 1 mg/kg and compounds of the invention were delivered at the dose of 30 mg/kg; in the combination group the compounds of the invention were delivered almost 1 hour after topotecan treatment. Control mice were solvent-treated orally in parallel with drug treatments.
Drug efficacy was assessed as mean percentage tumor weight inhibition in drug-treated versus control mice expressed as tumor weight inhibition % (TWI %)=100−(mean tumor weight treated/mean tumor weight control×100), evaluated during and after drug treatment. Drug tolerability was assessed in tumor-bearing mice as either lethal toxicity, i.e., any death in treated mice occurring before any control death, or percentage body weight loss (BWL %)=100−(body weight on day x/body weight on day 1×100), where x represents a day after or during the treatment period.
For orientation: A xenograft is tissue or cells of one species grown in another, often human tumour cells in immunodeficient mice.

Marks after values point to notes of the source that are not given here.

Consider `CCOc1cc(C(=O)NC2CC(C)(C)NC(C)(C)C2)ccc1-c1cc2cc(Cl)c(Cl)cc2[nH]1` [Example 2], for which, in test [1] (HT29/Mit model, subtoxic and subactive concentrations (<1 μM) of compound of example 2), the “Effect on antiproliferative activity of topotecan” value is given as “enhanced antiproliferative activity of topotecan”. Moreover, in test [1] (HT29/Mit, 72 hours, 0.5 μM), the “Effect on cell growth of compound of example 2 alone” value was “does not itself inhibit cell growth”. Besides, the IC50 amounted to 0.9 ± 0.2 µM in test [1] (Homo sapiens, HT-29, 72 h, read-out: Antiproliferative activity (IC50 ± S.D., μM) HT-29/Mit); 2.4 ± 1.4 µM in test [2] (Homo sapiens, LoVo, 72 h, read-out: Antiproliferative activity (IC50 ± S.D., μM) LoVo); 2 ± 0.1 µM in test [3]. Also, the “Interaction with SN38” value in test [2] (LoVo line) is “synergism”. Moreover, the Interaction with taxol entry in test [2] (LoVo line) is “synergism”. Also, the inhibition at 2.2 µM in test [4] (NCI-H460, 2.2 μM) was determined as 51%; in test [5] (NCI-H460, 2.2 μM) it was 92%. Further, the inhibition at 5.7 µM is 92% in test [4] (NCI-H460, 5.7 μM) and 100% in test [5] (NCI-H460, 5.7 μM). Further, in the test on H460 primary tumor, the “LCK (Log10 Cell Kill)” value was determined as 0.6. The “Max TWI (day 56) (Maximal Tumor weight inhibition achieved)” value is reported as 58* % in the test with H460 primary tumor (listed as Compound of example 2) and 58% with H460 primary tumor (listed as compound of example 2).

A word on the inhibition: it is the percentage by which the read-out fell short of the control. A lower inhibition goes with a weak effect.
